In US4547513A, “2-Arylbenzothiazoline derivatives and their use in treating angina cordis” (Santen Pharmaceutical Co., Ltd., priority 1983, dated 1985) one finds IC50 data, which are given here for five compounds.

SMILES strings stand for the structures. Where a name gives a salt, the structure may show the parent alone.

The test system of one assay is guineapig teania coli. The assay can be described thus: Calciumantagonistic activity: inhibition of Ca++-evoked contraction of isolated guineapig teania coli (Pharmacological test I). Format: cell-based. As to conditions: Cavia porcellus, 5 min, Ca++-free-high-K Krebs solution, 32° C., 5 minutes exposure before CaCl2 (3×10^-4M), read-out: Calciumantagonistic activity IC50 (50% inhibition of Ca++-evoked contraction). The protocol: The action potentials on the smooth muscles of uterus, teania coli and portal vein depend on calcium ion, and therefore these smooth muscle preparations are useful for screening of calciumantagonists. We measured the calciumantagonistic activity of the compounds by the method using guineapig teania coli preparation.
Isolated guineapig teania coli was suspended in a 20 ml organ bath with Krebs solution at 32° C. and bubbled with 5% carbon dioxide in oxygen. After equilibration, the muscle was washed with Ca^++ -free Krebs solution, and when the muscle had relaxed to basal level, it was suspended in Ca^++ -free-high-K Krebs solution.
The muscule was exposed to the test compounds for 5 minutes before addition of CaCl2, and the contraction evoked by CaCl2 (3×10^-4M) was recorded isotonically. The calciumantagonistic activity was represented by the concentration of the test compound which elicited 50% inhibition of Ca^++ -evoked contraction (IC50).

In assay [1] the test system is platelet aggregation (rabbit platelet rich plasma). Put plainly: Platelet antiaggregatory activity in rabbit platelet rich plasma in vitro (Pharmacological test II). In kind it is cell-based. As to conditions: Oryctolagus cuniculus, rabbit PRP, 1 minute preincubation at 37° C., induced by collagen (3μg/ml) or ADP (3μM), inducer not given, read-out: Antiaggregation activity IC50 (50% inhibition of the control response). The protocol:
Blood was obtained from an anesthetized rabbit using 0.1 volume of 3.8% sodium citrate as anticoagulant. Platelet rich plasma (PRP) was isolated by centrifugation at 650 rpm for 10 minutes at room temperature. After preincubation of PRP (0.25 ml) with various concentrations of the test compounds (14μl) for 1 minute at 37° C., collagen (3μg/ml: final concentration) or ADP (3μM: final concentration) was added to induce aggregation and the aggregation profiles were monitored by RIKADENKI six-channel aggregometer. The control experiment contained saline instead of the test compound.
The antiaggregatory activity was represented by the concentration of the test compounds which elicited 50% inhibition of the control response.

With `COc1ccc(OCCCCN2CCC(C(=O)Cc3ccccc3)CC2)c(C2Sc3ccccc3N2C(C)=O)c1` (stereo not shown) [compound 7, 3-Acetyl-2-[2-[4-(4-benzylcarbonyl-1piperidyl)butoxy]-5-methoxyphenyl]benzothiazoline maleate], the IC50 in the assay on guineapig teania coli came to 3.2 µM.
Take `COc1ccc(OCCCCN2CCC(C(=O)c3ccc(F)cc3)CC2)c(C2Sc3ccccc3N2C(C)=O)c1` (stereo not shown) [compound 6, 3Acetyl-2-[2-[4-[4-(4-fluorobenzoyl)-1-piperidyl]butoxy]-5-methoxyphenyl]benzothiazoline maleate]: the IC50 with guineapig teania coli was found to be 1.6 µM; in assay [1] it was 0.29 µM.
Regarding `COc1ccc(OCCCCN2CCC(C(=O)c3ccc(Cl)cc3)CC2)c(C2Sc3ccccc3N2C(C)=O)c1` (stereo not shown) [compound 4, 3-Acetyl-2-[2-[4-[4-(4-chlorobenzoyl)-1-piperidyl]butoxy]-5-methoxyphenyl]benzothiazoline maleate], the concentration for half-maximal inhibition (IC50) with guineapig teania coli was 8.7 µM; in assay [1] it was 3.2 µM.
`COc1ccc(OCCCCN2CCC(C(O)c3ccccc3)CC2)c(C2Sc3ccccc3N2C(C)=O)c1` (stereo not drawn) [compound 5, 3-Acetyl-2-[2-[4-[4-(α-hydroxybenzyl)-1-piperidyl]butoxy]5-methoxyphenyl]benzothiazoline maleate]: in the assay on guineapig teania coli, the concentration for half-maximal inhibition (IC50) stood at 8.2 µM.
Take `COc1ccc(OCCCCN2CCC(C(=O)c3ccc(C)cc3)CC2)c(C2Sc3ccccc3N2C(C)=O)c1` (stereo not shown) [compound 3, 3-Acetyl-2-(5-methoxy-2-[4-[4-(4-methylbenzoyl)-1-piperidyl]butoxy]phenyl]benzothiazoline maleate]: the half-inhibitory concentration (IC50) in assay [1] came out at 3.2 µM.
